Measured values: patent publication US20250074871A1, “PHENETHYLAMINES AND METHODS OF PREPARATION THEREOF” (priority 2022, published 2025)
“And” between values parts separate entries of the source, which are not always exact repeats. Identical values can stand only once. Like-named read-outs stand apart in the source and are kept apart here.

Key:
5-HT1B = 5-HT1B (Homo sapiens, UniProt P28222); assay: 5-HT receptor activity panel (Table 3); format: cell-based; details: Table 3
5-HT7 = 5-HT7 (Homo sapiens, UniProt P34969); assay: 5-HT receptor activity panel (Table 3); format: cell-based
Sequence of 5-HT7 (P34969 whole entry, species assumed): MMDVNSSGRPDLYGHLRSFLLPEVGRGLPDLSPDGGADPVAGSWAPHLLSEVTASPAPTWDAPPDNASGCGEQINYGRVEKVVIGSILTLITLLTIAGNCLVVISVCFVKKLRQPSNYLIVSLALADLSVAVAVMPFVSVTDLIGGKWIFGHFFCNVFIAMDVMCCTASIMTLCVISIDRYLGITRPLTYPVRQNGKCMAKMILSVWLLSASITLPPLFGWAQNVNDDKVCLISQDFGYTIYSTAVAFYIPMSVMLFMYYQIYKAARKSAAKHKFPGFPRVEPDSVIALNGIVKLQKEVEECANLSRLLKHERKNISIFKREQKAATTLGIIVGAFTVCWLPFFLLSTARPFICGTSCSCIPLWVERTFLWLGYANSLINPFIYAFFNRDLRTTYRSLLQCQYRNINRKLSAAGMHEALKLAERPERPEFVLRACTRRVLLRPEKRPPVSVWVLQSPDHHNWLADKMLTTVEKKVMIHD

hepatocyte [1] = assay: in vitro hepatocyte clearance, mouse; format: in vitro ADME; details: Mouse
Description: (§1) Additional experimentation was performed on compound 109. Table 6 summarizes, among other things, the anticipated hepatic clearance of compound 109 in various species, as specified in Table 6 and as determined by calculating the in vitro hepatocyte clearance over time and scaling such rate with such species' hepatocyte count and the anticipated liver blood flow rate in such species.

[2] = in vitro hepatocyte clearance, mouse; format: in vitro ADME; details: Mouse hepatocytes; for hepatocyte CLint: read-out: In vitro Clint (μL/min/10^6 cells); for half-life: read-out: In vitro T1/2; for CLint scaled: read-out: Scale-up Clint
Description: as §1

hepatocyte [3] = assay: in vitro hepatocyte clearance, rat; format: in vitro ADME; details: Rat
Description: as §1

[4] = in vitro hepatocyte clearance, rat; format: in vitro ADME; details: for hepatocyte CLint / half-life: Rat hepatocytes; for hepatocyte CLint: read-out: In vitro Clint (μL/min/10^6 cells); for half-life: read-out: In vitro T1/2; for CLint scaled: rat, hepatocytes, read-out: Scale-up Clint
Description: as §1

5-HT6 = 5-HT6 (Homo sapiens, UniProt P50406); assay: 5-HT receptor activity panel (Table 3); format: cell-based
Sequence of 5-HT6 (P50406 whole entry, species assumed): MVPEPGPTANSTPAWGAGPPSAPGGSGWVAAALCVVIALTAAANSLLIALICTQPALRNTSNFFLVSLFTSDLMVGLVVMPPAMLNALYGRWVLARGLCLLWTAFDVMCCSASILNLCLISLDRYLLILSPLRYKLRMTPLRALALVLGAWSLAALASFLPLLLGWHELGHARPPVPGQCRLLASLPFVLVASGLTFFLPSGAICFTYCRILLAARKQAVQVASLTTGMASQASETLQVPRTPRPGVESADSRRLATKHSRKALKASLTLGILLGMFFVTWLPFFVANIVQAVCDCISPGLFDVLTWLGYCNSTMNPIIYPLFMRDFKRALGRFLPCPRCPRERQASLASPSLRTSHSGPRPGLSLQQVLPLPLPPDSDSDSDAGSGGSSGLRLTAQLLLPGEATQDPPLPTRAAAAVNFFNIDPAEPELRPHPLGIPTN

5-HT2C receptor = molecular target: T1, 5-HT2C receptor (Homo sapiens, UniProt P28335); assay: cell-based; format: cell-based; details: for 5-HT2C BRET Eff %: normalized to % 5-HT stimulation
T1 construct: expressed in transfected cells; host or cells: HEK293T
T1 sequence (P28335 33-458): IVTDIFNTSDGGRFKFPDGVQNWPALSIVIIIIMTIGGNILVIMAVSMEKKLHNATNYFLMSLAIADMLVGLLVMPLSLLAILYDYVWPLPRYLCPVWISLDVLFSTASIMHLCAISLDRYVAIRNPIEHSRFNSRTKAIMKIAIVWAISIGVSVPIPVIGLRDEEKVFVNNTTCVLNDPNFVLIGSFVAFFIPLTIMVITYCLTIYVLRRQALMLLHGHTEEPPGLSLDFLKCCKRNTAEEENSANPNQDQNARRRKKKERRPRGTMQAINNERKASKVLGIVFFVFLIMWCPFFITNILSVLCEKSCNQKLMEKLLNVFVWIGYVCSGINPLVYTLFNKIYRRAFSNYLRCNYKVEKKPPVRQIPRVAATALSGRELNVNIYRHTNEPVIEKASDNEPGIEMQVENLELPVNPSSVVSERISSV

5-HT1E = 5-HT1E (Homo sapiens, UniProt P28566); assay: 5-HT receptor activity panel (Table 3); format: cell-based
Sequence of 5-HT1E (P28566 whole entry, species assumed): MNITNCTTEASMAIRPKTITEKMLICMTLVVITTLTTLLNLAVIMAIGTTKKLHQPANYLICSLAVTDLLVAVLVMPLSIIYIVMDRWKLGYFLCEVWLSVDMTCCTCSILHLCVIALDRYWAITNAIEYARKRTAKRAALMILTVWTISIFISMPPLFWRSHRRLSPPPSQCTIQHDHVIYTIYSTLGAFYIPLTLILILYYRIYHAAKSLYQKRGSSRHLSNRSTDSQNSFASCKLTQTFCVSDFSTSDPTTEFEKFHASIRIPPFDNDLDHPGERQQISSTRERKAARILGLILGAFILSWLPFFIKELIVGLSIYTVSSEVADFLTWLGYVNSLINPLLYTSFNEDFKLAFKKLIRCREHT

mice = assay: head-twitch response (HTR) in mice; format: in vivo, male C57BL/6J mice; details: for ED50: Mus musculus
Description: As used herein and unless otherwise specified, the term “HTR” refers to head-twitch response, which is a measurement of 5-HT2A activation in vivo.
As used herein and unless otherwise specified, the term “mice” refers to male C57BL/6J mice (6-8 weeks old).
HTR was assessed using a head-mounted neodymium magnet and a magnetometer detection coil, as described in Halberstadt et al., Psychopharmacology (Berl.), 2013, 227(4): 727-739. Table 8 below summarizes the ED50 in head twitch in mice of various compounds disclosed herein as compared to psilocybin. FIG. 3 illustrates the HTR relative to dose for compound 109: […]

healthy rat subjects = assay: locomotor activity test in healthy rats; format: in vivo; details: intraperitoneal dose of up to 30 mg/kg
Description: (§2) Additional experimentation was also done on compound 109. Namely, an intraperitoneal dose of up to 30 mg/kg of compound 109 and various reference compounds were delivered into healthy rat subjects and surgery induced abnormal rat subjects (olfactory bulbectomized rats). […] Without being bound by theory, it is believed that these observations are a result of long lasting neuroplasticity effects of compound 109 on surgery induced abnormal rat subjects. FIG. 5 summarizes the results of this experiment. Using psilocybin as a comparative psychedelic, the results of this experiment support the notion that compound 109 provides sustainable acute antidepressant effects. Note that “VEH” refers to vehicle, and “PSIL” refers to psilocybin, in FIG. 5.

[5] = tested on: α 1a, α 2a, Kappa (KOP), μ (MOP), 5-HT transporter (SERT); assay: follow up functional assays on SafetyScreen44 hits
Description: Various compounds disclosed herein were subjected to an in vitro SafetyScreen44™ panel for identifying off-target activity. Compounds of interest that are identified in the panel are then tested in follow up functional assays to identify if such compounds have a significant off-target risk. […] It is predicted that other compounds share similar characteristics with compound 109 and also lack of the off-target activity.

[6] = tested on: olfactory bulbectomized rats; assay: locomotor/behavioral activity in olfactory bulbectomized rats; format: in vivo, rat; details: single intraperitoneal dose, FIG. 5
Description: as §2

[7] = Table 2, at least three replicate trials, read-out: 5-HT2C BRET EC50
[8] = Table 3 panel, read-out: 5-HT2C EC50

Sequence of 5-HT1B (P28222 whole entry, species assumed): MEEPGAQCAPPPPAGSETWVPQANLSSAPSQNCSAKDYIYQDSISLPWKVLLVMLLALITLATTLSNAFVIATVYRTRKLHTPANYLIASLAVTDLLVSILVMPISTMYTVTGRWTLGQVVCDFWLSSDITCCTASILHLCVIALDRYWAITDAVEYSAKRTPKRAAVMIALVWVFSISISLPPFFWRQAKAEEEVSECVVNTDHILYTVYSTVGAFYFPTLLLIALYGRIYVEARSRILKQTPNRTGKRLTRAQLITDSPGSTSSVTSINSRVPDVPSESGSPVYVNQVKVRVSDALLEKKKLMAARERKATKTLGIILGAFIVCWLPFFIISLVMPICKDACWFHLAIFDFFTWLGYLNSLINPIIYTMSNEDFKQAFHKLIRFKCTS

| Structure (SMILES) | 5-HT1B EC50, nM (5-HT1B) | Predicted hepatic CL (hepatocyte [1]) [mL/min/kg] | hepatocyte CLint [2] [µL/min/1e6 cells] | half-life [2] [min] | CLint scaled [2] [mL/min/kg] | Predicted hepatic CL (hepatocyte [3]) [mL/min/kg] | hepatocyte CLint [4] [µL/min/1e6 cells] | half-life [4] [min] | CLint scaled [4] [mL/min/kg] | 5-HT6 Eff, % (5-HT6; Table 3) [%] | EC50 (5-HT2C receptor; [7]) | 5-HT2C BRET Eff % (5-HT2C receptor; Table 2) | 5-HT2C Eff, % (5-HT2C receptor; Table 3 panel) [%] | EC50 (5-HT2C receptor; [8]) [nM] | 5-HT1E Eff, % (5-HT1E; Table 3) [%] | ED50 (mice; mice) [mg/kg] | other results |
| --- | --- | --- | --- | --- | --- | --- | --- | --- | --- | --- | --- | --- | --- | --- | --- | --- | --- |
| COc1cc(C(F)(F)F)ccc1CCNCc1ccccc1O [Cpd #93] | Not active | <88.90 | < 614 | > 2.26 | < 7250 | <54.16 | < 614 | > 2.26 | < 2870 | −12 | 1.1 nM and 1.3 nM | 105% and 103% | 99 | 1.5 | 211 | 0.28 | EC50 (5-HT7): 0.5 nM; 5-HT7 Eff, % (5-HT7; Table 3): −12%; EC50 (5-HT6): 0.6 nM; EC50 (5-HT1E): 70100 nM |
| CSc1ccccc1CNCCc1ccc(C#N)cc1O [Cpd #109] | Not active | >88.90 | > 614 | < 2.26 | > 7250 | 52.55 | 234 | 5.93 | 1090 | 18 | 253 nM | 114% | 110 | 225 | 12 | 2.69 | 5-HT7 EC50, nM (5-HT7; Table 3): Not active; effect on normal locomotor activity (healthy rat subjects): no suggestion that an intraperitoneal dose of up to 30 mg/kg of such compound affects the normal locomotor activity; Hepatic Extraction Ratio (E) (hepatocyte [1]): >0.99; Hepatic Extraction Ratio (E) (hepatocyte [3]): 0.95; EC50 (5-HT6; Table 3, read-out: 5-HT6 EC50): 5390 nM; Follow up studies (off-target activity) [5]: No significant; Follow up studies (off-target activity) ([5]; listed as compound 109): does not possess significant off-target activity; EC50 (5-HT1E; Table 3, read-out: 5-HT1E EC50): 814 nM; inhibition of abnormal behavioral activity [6]: significant and long lasting inhibition of abnormal behavioral activity; central hallucinogenic (or psychedelic) effects compared with psilocybin (mice; conclusion from Tables 6-8): less central hallucinogenic (or psychedelic) effects than traditional psychedelic compounds such as psilocybin; duration of psychedelic effect (HTR over time) (mice; mice, FIG. 4, different doses): less than 30 minutes |
